The record followed here is PubChem BioAssay (NCI).

Among the test systems are DU-145 prostate; NCI-H226 lung; OVCAR-3 ovarian; IGROV1 ovarian; SK-MEL-2 melanoma; SNB-19 CNS; SK-OV-3 ovarian; M14 melanoma; SNB-75 CNS; SK-MEL-28 melanoma.
Assay in all cases: NCI anticancer screen, dose series, 48 h

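Where inhibition never reached the appropriate level, the endpoint shown equals the highest concentration tested. Otherwise, values were interpolated linearly from a five-concentration, 48-hour dose response in 96-well plates. TGI: concentration producing complete growth inhibition.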

As for `O=C(CN1CCN(Cc2ccccc2)CC1)N1CCCn2c1nc1ccccc1c2=O`, the TGI in the assay on DU-145 prostate, with NCI-H226 lung, in the assay with OVCAR-3 ovarian, in the assay with IGROV1 ovarian, in the assay with SK-MEL-2 melanoma and in the assay with SNB-19 CNS was > 100 µM each time. The TGI with SK-OV-3 ovarian, in the assay on M14 melanoma and in the assay on SNB-75 CNS was > 100 µM each time.

In the case of `CC(C)CCC[C@@H](C)[C@H]1CCC2C3CC=C4C[C@@H](Oc5c6ccccc6nc6ccccc56)CCC4C3CCC21` (stereo partly specified), the TGI with DU-145 prostate, in the assay on NCI-H226 lung, in the assay on OVCAR-3 ovarian, with IGROV1 ovarian, with SK-MEL-2 melanoma and in the assay on SNB-19 CNS was > 50 µM in each case. The TGI in the assay on SK-MEL-28 melanoma, in the assay with SK-OV-3 ovarian and in the assay on M14 melanoma was > 50 µM in each case.

For the compound `C=CCOCn1cnc2c(N)ncnc21`, the TGI with DU-145 prostate, in the assay with NCI-H226 lung, with IGROV1 ovarian, with SK-MEL-2 melanoma, with SNB-19 CNS and in the assay with SK-MEL-28 melanoma was > 100 µM each time. Moreover, the TGI with SK-OV-3 ovarian, in the assay with M14 melanoma and with SNB-75 CNS was > 100 µM in each case.

Regarding `Cc1ccnc2[nH]c(-c3cccc(Cl)c3)cc(=O)c12`, the TGI with DU-145 prostate is > 100 µM; in the assay with NCI-H226 lung, > 100 µM; with OVCAR-3 ovarian it was 0.162 µM; in the assay with IGROV1 ovarian it was > 100 µM; in the assay with SK-MEL-2 melanoma, > 100 µM; in the assay on SNB-19 CNS, > 100 µM. The TGI in the assay on SK-MEL-28 melanoma, in the assay on SK-OV-3 ovarian and in the assay with M14 melanoma was > 100 µM in each case.

For the compound `NC(=Nc1ccc(O)cc1)S(=O)(=O)O`, the TGI with DU-145 prostate, in the assay on NCI-H226 lung, in the assay with OVCAR-3 ovarian, with IGROV1 ovarian, in the assay on SK-MEL-2 melanoma and in the assay with SNB-19 CNS was > 100 µM each time. Also, the TGI in the assay with SK-OV-3 ovarian, in the assay on M14 melanoma and in the assay with SNB-75 CNS was > 100 µM each time.

For `CN(C)c1nc(NC23CC4CC(CC(C4)C2)C3)nc(N(C)C)n1`, the TGI with DU-145 prostate was > 100 µM; with NCI-H226 lung it was > 77.6 µM; with OVCAR-3 ovarian it was > 76.2 µM; in the assay on SK-MEL-2 melanoma it was 63.1 µM; in the assay on SNB-19 CNS, > 40.1 µM; in the assay with SK-MEL-28 melanoma, > 69.9 µM. Moreover, the TGI in the assay with SK-OV-3 ovarian is > 100 µM; in the assay with M14 melanoma, > 57.9 µM; with SNB-75 CNS, > 55.2 µM.

`O=c1[nH]nc(-c2ccccc2)n1/N=C/c1c[nH]c2ccccc12`: the TGI in the assay on DU-145 prostate, in the assay with NCI-H226 lung, with OVCAR-3 ovarian, with IGROV1 ovarian, in the assay on SK-MEL-2 melanoma and in the assay with SNB-19 CNS was > 100 µM throughout. Also, the TGI with SK-MEL-28 melanoma, with SK-OV-3 ovarian and in the assay with M14 melanoma was > 100 µM throughout.

In the case of `O=C1CSc2nc3ccccc3n2/C=N\N1`, the TGI with DU-145 prostate, in the assay on NCI-H226 lung, with SK-MEL-2 melanoma, in the assay on SNB-19 CNS, with SK-MEL-28 melanoma and with SK-OV-3 ovarian was > 100 µM throughout. Further, the TGI with M14 melanoma is > 100 µM.

`COC(=O)/C=C(\C)C(=O)N(C)c1ccccc1I`: the TGI in the assay with DU-145 prostate, in the assay with NCI-H226 lung, with OVCAR-3 ovarian, with SK-MEL-2 melanoma, with SNB-19 CNS and in the assay on SK-MEL-28 melanoma was > 100 µM in each case. Further, the TGI in the assay on SK-OV-3 ovarian, in the assay with M14 melanoma and in the assay with SNB-75 CNS was > 100 µM each time.

Consider `CN1C(=S)C(c2ccccc2)Sc2ccccc21` (stereo unspecified), for which the TGI with DU-145 prostate, in the assay on NCI-H226 lung, in the assay on OVCAR-3 ovarian, in the assay on IGROV1 ovarian, in the assay with SNB-19 CNS and in the assay on SK-MEL-28 melanoma was > 100 µM in each case. In addition, the TGI in the assay with SK-OV-3 ovarian, with M14 melanoma and in the assay with SNB-75 CNS was > 100 µM in each case.

`O=[N+]([O-])/C(C(Cl)=C(Cl)Cl)=C1\NCCO1`: the TGI with DU-145 prostate, with NCI-H226 lung, in the assay on OVCAR-3 ovarian, with IGROV1 ovarian, in the assay on SK-MEL-2 melanoma and with SNB-19 CNS was > 100 µM in each case. For the same compound, the TGI with SK-MEL-28 melanoma, with SK-OV-3 ovarian and with M14 melanoma was > 100 µM throughout.

Consider `Cn1c(C(C#N)c2nc(Cl)ncc2Br)nc2ccccc21` (stereo unspecified), for which the TGI in the assay with DU-145 prostate, in the assay with NCI-H226 lung, in the assay with OVCAR-3 ovarian, in the assay on IGROV1 ovarian, in the assay with SNB-19 CNS and in the assay with SK-MEL-28 melanoma was > 100 µM throughout. In addition, the TGI with SK-OV-3 ovarian, in the assay on M14 melanoma and with SNB-75 CNS was > 100 µM in each case.

Regarding `O=C(Nc1cccc(C(F)(F)F)c1)O/N=C(/Cl)CCl`, the TGI in the assay on DU-145 prostate, with OVCAR-3 ovarian, in the assay on IGROV1 ovarian, with SK-MEL-2 melanoma, in the assay with SNB-19 CNS and with SK-MEL-28 melanoma was > 100 µM in each case. The TGI with SK-OV-3 ovarian, with M14 melanoma and in the assay on SNB-75 CNS was > 100 µM throughout.

As to `CCOC(=O)c1cc(C(=O)c2ccccc2)n2nc(-c3ccc(Cl)cc3)ccc12`, the TGI in the assay on DU-145 prostate was 85.2 µM; in the assay on NCI-H226 lung, 55.8 µM; with IGROV1 ovarian, 38.8 µM; in the assay on SK-MEL-2 melanoma, 32.6 µM; in the assay on SNB-19 CNS, 34.8 µM; in the assay on SK-MEL-28 melanoma, 68.3 µM. In addition, the results for the TGI in the assay on SK-OV-3 ovarian and with M14 melanoma were 34.5 µM and 90.7 µM, respectively.

For `Cc1ccc(OCC2OC(n3cnc4c(N(C)C)nc(Br)nc43)CC2Oc2ccc(C)cc2)cc1` (stereo unspecified), the TGI with DU-145 prostate, in the assay with NCI-H226 lung, with OVCAR-3 ovarian, with IGROV1 ovarian, with SK-MEL-2 melanoma and with SNB-19 CNS was > 100 µM in each case. For the same compound, the TGI in the assay with SK-MEL-28 melanoma, in the assay on SK-OV-3 ovarian and with M14 melanoma was > 100 µM throughout.

In the case of `O=C(NCCC(F)(F)C(F)(F)C(F)(F)C(F)(F)F)NC1OC(CO)C(O)C(O)C1O` (stereo unspecified), the TGI with DU-145 prostate, in the assay with OVCAR-3 ovarian, in the assay with IGROV1 ovarian, in the assay with SK-MEL-2 melanoma, in the assay with SNB-19 CNS and with SK-MEL-28 melanoma was > 100 µM each time. Further, the TGI in the assay on SK-OV-3 ovarian, with M14 melanoma and with SNB-75 CNS was > 100 µM in each case.
